We go through 5 compounds from patent publication US5719154A, “Oxazolidinone antibacterial agents having a six-membrane heteroaromatic ring” (priority 1996, dated 1998).

One assay concerns S. aureus UC ® No. 9213. The experiment in a line: Murine Assay, in vivo antimicrobial activity (ED50 from mortality ratios) against S. aureus UC No. 9213. Set-up: species or system Staphylococcus aureus (infected female mice). Particulars: oral or subcutaneous, survival six days; for ED50: Staphylococcus aureus, UC9213, 144 h, female mice infected intraperitoneally with S. aureus UC No. 9213, drug one hour and five hours after infection, probit analysis. How it is done: Antimicrobial activity is tested in vivo using the Murine Assay procedure. Groups of female mice (six mice weighing 18-20 grams each) are injected intraperiteneally with bacteria which are thawed just prior to use and suspended in brain heart infusion with 4% brewers yeast (Staphylococcus aureus) or brain heart infusion (Streptecoccus species). Antibiotic treatment at six dose levels per drug is administered one hour and five hours after infection by either oral intubation or subcutaneous routes. Survival is observed daily for six days. ED50 values based on mortality ratios are calculated using probit analysis. The subject compounds are compared against drug U-100592 as controls. […] The detailed information with respect to the structure and in vivo efficacy evaluations of U-100592 is summarized in Upjohn Oxazolidinone Antibacterial Agents, Posters Presented at the 35th Interscience Conference on Antimicrobial Agents and Chemotherapy, San Francisco, 17-20 September 1995.

For assay [1], the system named is bacteria (Staphylococcus aureus or Streptecoccus species). The note with it: extensively evaluated in this animal model versus vancomycin; cited from earlier work.

As usually defined, the ED50 is the midpoint of the dose-response relation. With `CC(=O)NC[C@H]1CN(c2ccc(N3CCN(c4ncccn4)CC3)c(F)c2)C(=O)O1` [Example 1], the ED50 with S. aureus UC ® No. 9213 came to 6.2 mg/kg.

For the compound `CC(=O)NC[C@H]1CN(c2ccc(N3CCN(c4ccncn4)CC3)c(F)c2)C(=O)O1` [Example 2], the ED50 with S. aureus UC ® No. 9213 came out at 4.4 mg/kg.

In the case of `CC(=O)NC[C@H]1CN(c2ccc(N3CCN(c4cccnn4)CC3)c(F)c2)C(=O)O1` [Example 3], the ED50 in the assay on S. aureus UC ® No. 9213 stood at 8.8 mg/kg. The same measure, in the same setting: to `CC(=O)NC[C@H]1CN(c2ccc(N3CCN(c4ccc(C)nn4)CC3)c(F)c2)C(=O)O1` [Example 4] belongs 6.3 mg/kg.

Regarding `CC(=O)NC[C@H]1CN(c2ccc(N3CCN(C(=O)CO)CC3)c(F)c2)C(=O)O1` [Example U-100592, reference compound], in the assay on S. aureus UC ® No. 9213 (comparator control for the Example of the same line, female mice, S. aureus UC No. 9213, 8640 min), the “U-100592 ED50” value was 8.7 mg/kg. The potency versus vancomycin result in assay [1] is listed as “equipotent to vancomycin”.
